# Reference: patent US10450260B2, “NO- and H2S-releasing compounds” (RESEARCH FOUNDATION OF THE CITY UNIVERSITY OF NEW YORK, priority 2011, dated 2019)
# Tests used:
# HT-29 cells = test: LDH release assay; assay type: cell-based, human
# Description: For determination of lactate dehydrogenase (LDH) activity, HT-29 cells (1×10^5 cells/well) were incubated in 96-well plates with different concentrations of NOSH-1. After incubation for 2, 4, 8, 12 and 24 h, LDH activity in the supernatant was assessed using the LDH Cytotoxicity Assay Kit (Cayman Chemical Ann Arbor, Mich.), according to the manufacturer's instructions. Cytotoxicity was calculated as a percentage based on the LDH activity released from cells that had been treated with NOSH-1 compared with LDH activity from cultures incubated with Triton X-100. The % of LDH release was determined using the formula (E−C)/(T−C)×100, where E is the experimental absorbance of cell cultures, C is the control absorbance of cell-free culture medium, and T is the absorbance corresponding to the maximal (100%) LDH release of Triton-lysed cells.^1
# HT-29 cells xenograft = test: HT-29 tumor xenograft in athymic nude mice; assay type: in vivo, mouse
# Description: Male athymic nude (NU/NU) mice (N=8), age 5 weeks, were purchased from Charles River Laboratories, Inc., (Wilmington, Mass.). HT-29 cells (2×10^6) suspended in 50% v/v Matrigel (BD Biosciences, San Jose, Calif.) were inoculated subcutaneously in the right flanks of each mouse. When the tumors reached an average sizes of ˜80 mm^3, the mice were randomly divided (N=4/group) and gavaged daily for 18 days with either vehicle (1% methylcelloluse) or NOSH-1 (100 mg/kg body weight). Tumor size (length and width) was measured at 3 day intervals with an electronic caliper from which tumor volume was calculated as length×width^2/2. The mice were weighed every 3 days and were closely monitored for signs of toxicity.
# [1] = system: eleven different cancer cell lines; test: MTT cell growth inhibition, all cell lines of the panel; assay type: cell-based; details: Homo sapiens; 24 hr; colon, breast, pancreas, lung, prostate, leukemia cancer cell lines of Table 1
# Description: HT-29, SW-480 and HCT-15 human colon adenocarcinoma, MIA PaCa-2 and BxPC-3 human pancreatic cancer, LNCAP human prostate cancer, A549 human lung cancer, MCF-7 (estrogen receptor positive), MDA-MB 231 and SK-BR-3 (estrogen receptor negative) human breast cancer, and Jurkats human leukemia cell lines were obtained from American Type Tissue Collection (Manassas, Va.). All cells lines were grown as monolayers except for the Jurkats which were grown in suspension. […] Single cell suspensions were obtained by trypsinization (0.05% trypsin/EDTA), and cells were counted using a hemocytometer. Viability was determined by the trypan blue dye exclusion method.
# Cell growth inhibitory effect of NOSH compounds were measured using a colorimetric MTT assay kit (Roche, Indianapolis, Ind.). […] The absorbance of the plates was measured on an ELISA reader at a wavelength of 570 nm. […]
# HT-29, SW-480 and HCT-15 human colon adenocarcinoma, MIA PaCa-2 and BxPC-3 human pancreatic cancer, LNCAP human prostate cancer, A549 and H383 human lung cancer, MCF-7, MDA-MB 231 and SK-BR-3 human breast cancer and Jurkat T cell human leukemia cell lines were obtained from American Type Tissue Collection (Manassas, Va.) All cells lines were grown as monolayers except for the Jurkat T cells which were grown as suspension culture. […] Viability was determined by the trypan blue dye exclusion method. […]
SMILES,"LDH release (HT-29 cells; 4-times its IC50, 24 hours)","LDH release (HT-29 cells; 4-times its IC50, shorter durations (2, 4, 6, 8 hours))","LDH release (HT-29 cells; at its IC50, shorter durations (2, 4, 6, 8 hours))",signs of toxicity (HT-29 cells xenograft; 100 mg/kg daily for 18 days),"mean reduction of tumor volume (HT-29 cells xenograft; 100 mg/kg daily for 18 days, vs control)","mean tumor volume (HT-29 cells xenograft; 100 mg/kg daily gavage for 18 days, control 2300±200)","tumor volume versus vehicle (FIG. 7B) (HT-29 cells xenograft; 6 days after treatment to sacrifice, P<0.05 day 6, P<0.01 days 9-18)","average weight of the mice, beginning of the study (HT-29 cells xenograft; treated mice, 100 mg/kg daily)","average weight of the mice, end of the study (HT-29 cells xenograft; treated mice, 100 mg/kg daily for 18 days)",IC50 [1]
"O=C(CCCO[N+](=O)[O-])Oc1ccccc1C(=O)Oc1ccc(-c2cc(=S)ss2)cc1 [NOSH-1, 4-(3-thioxo-3H-1,2-dithiol-5-yl)phenyl 2-((4-(nitrooxy)butanoyl)oxy)benzoate]",less than 10%,1-5%,0.5-4%,no overt signs of toxicity,85%,350±35 mm^3,significantly reduced tumor volume,21.7 ± 0.82 g,27.2 ± 1.1 g,
"CC(=O)Oc1ccccc1C(=O)O [ASA, aspirin, reference compound]",,,,,,,,,,> 5 mM
